From article PMC11944387, “Cannabidiol-Based Thiosemicarbazones: A Preliminary Study Evaluating Their Anti-Tyrosinase Properties” (Molecules, 2025) come the findings set out here.

Where “and” joins values, the source holds several entries; their conditions need not be identical. Equal values may be shown once. Entries after “also recorded” stand apart in the source; their conditions may differ.

Test [1] can be described thus: DPPH radical-scavenging assay. Particulars: 100 μM DPPH in ethanol, 30 min at room temperature in the dark, absorbance 517 nm; mean ± SD. How it is done:
The total antioxidant capacity of the synthesized compounds was determined using the DPPH radical as a reagent, according to the procedure described by Chang et al. with some modifications. Briefly, 100 μL of 100 μM solution of DDPH in ethanol was added to 10 μL of the synthesized compounds at different concentrations (500, 250, 125, 62.5, 31.25, 15.62, and 7.81 μM). […] The percentage of the inhibition of DPPH oxidation was calculated according to the following formula: DPPHscavengingeffect%=Acontrol−Asample/Acontrol×100 where Acontrol means the absorbance of the control sample and Asample means the absorbance of the standard or tested compound.

The nature of test [2]: Ferric-reducing antioxidant power (FRAP) assay. Particulars: trolox equivalent; 45 min at 37 °C, absorbance 595 nm. How it is done: The antioxidant capacity of the synthesized compounds was evaluated by the reduction of the ferric 2,4,6-tripyridyl-s-triazine complex (Fe^3+-TPTZ) to the ferrous form (Fe^2+-TPTZ) at low pH, which causes a colored ferrous–tripyridyltriazine complex to form, according to the procedure described by Benzie et al., with some modifications. Briefly, 20 µL of the tested compound was mixed with 130 µL FRAP reagent (buffer acetate pH = 3.6, 10 mM TPTZ, 40 mM HCl, 20 mM FeCl3/H2O ratio 10:1:1) and then incubated for 45 min at 37 °C. FRAP values were obtained by comparing the absorbance change at 595 nm in test reaction mixtures with those containing ferrous ions in known concentrations using trolox as a calibration curve (concentrations between 7.8 and 500 µM). The results were expressed as μM of trolox equivalent (TE). The absorbance was measured using a Tecan Infinite 200 PRO plate reader.

In test [3] the target is mushroom TYR. Nature of the test: Inhibition of diphenolase activity of mushroom TYR (L-DOPA substrate). Type of test: biochemical, Agaricus bisporus. Particulars: for IC50: diphenolase activity, L-DOPA 2 mM, pH 6.8, 37 °C, read-out: IC50 against mushroom TYR catalyzing oxidation of L-DOPA; for Inhibitory activity on TYR (in words): discussion of Table 1, mushroom TYR. How it is done: The inhibitory effects of the thiosemicarbazone–CBD–aldehyde derivatives on the diphenolase activity of mushroom TYR were assessed by UV-Vis spectrometry using L-DOPA as the substrate.
A potassium phosphate buffer (80 μL, 50 mM, pH 6.8), 20 μL of tyrosinase (100 units/mL), and 2 μL of the tested compounds (10–150 μM) dissolved in dimethyl sulfoxide (DMSO) were added to 96-well plates. After incubation at 37 °C for 20 min, 100 μL of L-DOPA (2 mM) was added. The absorbance changes at 475 nm (ε = 3.7 × 10^3 M^−1cm^−1) were immediately monitored for 20 min at 37 °C using a Tecan Infinite 200 PRO plate reader. […] Dose–response curves were generated by conducting assays with increasing concentrations of each inhibitor. To ensure measurement accuracy, all experiments were performed in triplicate, with the average value used as the final result.

Test [4] deals with mushroom TYR. Kind of test: Monophenolase inhibition assay of mushroom TYR (L-tyrosine substrate), lag time. Particulars: oxidation of L-tyrosine by mushroom TYR; for Lag time: compound 20 μM, without inhibitor 4.40 min; for Lag phase: control 264 s. Type of test: biochemical, Agaricus bisporus. How it is done: Additionally, the impact of the newly synthesized compounds on the initial stage of TYR enzymatic activity was evaluated using L-tyrosine as the substrate. This initial phase is characterized by a lag period and an increased reaction rate.
[…] After incubation at 37 °C for 20 min, 100 μL of L-tyrosine (2 mM) was added. The absorbance changes at 475 nm were immediately monitored for 40 min at 37 °C using a Tecan Infinite 200 PRO plate reader. The lag time was determined from the plot of absorbance at 475 nm versus time (min) by extrapolating the linear portion of the curve to the x-axis.

Test [5] deals with mushroom TYR. Kind of test: Inhibition kinetics on diphenolase activity of TYR (Lineweaver–Burk). Type of test: biochemical, Agaricus bisporus. Particulars: Lineweaver–Burk plot, L-DOPA 0.1–1 mM, compound 2.5–30 μM. The procedure: The inhibition mechanism of compound 5 on the diphenolase activity of TYR was further studied. The inhibition type was determined by the classical Lineweaver–Burk plot based on the inhibitory results of 5.
To evaluate the inhibition kinetics of tyrosinase, assays were conducted in phosphate buffer (50 mM, pH 6.8) using L-DOPA as the substrate (0.1–1 mM) and tyrosinase ([…]) in the presence of varying concentrations of compound 5 (2.5–30 μM) under the same conditions as described in Section 4.4. Absorbance changes at 475 nm were continuously monitored for 40 min at 37 °C using a Tecan Infinite 200 PRO plate reader. Initial reaction velocities (V0) were determined for each inhibitor concentration, and kinetic parameters (Kₘ and Vₘₐₓ) were analyzed using Lineweaver–Burk and Michaelis–Menten plots to determine the type of inhibition. All experiments were performed in triplicate to ensure reproducibility.

Test [6] concerns mushroom TYR. Nature of the test: Fluorescence quenching assay of TYR. Particulars: 310 K; for kq (bimolecular quenching rate constant): from Ksv with τ0 = 10^−8 s; for ka (binding constant): static quenching, double-log equation; for Ksv (Stern–Volmer quenching constant): λex 280 nm, pH 6.8. Type of test: binding, Agaricus bisporus. How it is done:
The fluorescence quenching spectra were recorded with an excitation wavelength (λex = 280 nm) and excitation and emission slit widths of 5 nm. A potassium phosphate buffer (80 μL, 50 mM, pH 6.8), 20 μL of tyrosinase (100 units/mL), and 2 μL of the tested compounds (10–100 μM) dissolved in DMSO were added to 96-well plates. After incubating at 37 °C for 20 min, the fluorescence spectrum was recorded at an emission range from 315 to 415 nm. Fluorescence quenching is described by the Stern–Volmer equation [69]: F0/F=1+Kqτ0[Q]=1+ksv[Q]
For the static quenching interaction, the binding affinity (Ka) and the number of binding sites (n) between the inhibitor and TYR were determined using the following calculations:(1) logF0−F/F=nlogQ+logka where F and F0 represent the fluorescence intensities of protein in the presence and absence of a quencher, respectively. [Q] is the quencher concentration. Ksv is the Stern–Volmer quenching constant, and kq is the rate constant of the bimolecular quenching process. τ0 is the average fluorescence lifetime of the fluorophores in the absence of the quencher, with a typical value of 10^−8 s for biological macromolecules.

For orientation: IC50 means the concentration needed to halve the response being measured. Take `C=C(C)[C@@H]1CCC(C)=C[C@H]1c1c(O)cc(CCCCC)cc1O` [Compound 1, Cannabidiol]: the half-inhibitory concentration (IC50) in test [1] was 506.1 ± 4.67 µM; on mushroom TYR [3], > 100 µM. Also, the FRAP value in test [2] came to 282.1 ± 5.68 μM TE.

For `C=C(C)[C@@H]1CCC(C)=C[C@H]1c1c(O)cc(CCCCC)c(C=O)c1O` [Compound 2], the IC50 on mushroom TYR [3] is > 100 µM.

For `C=C(C)[C@@H]1CCC(C)=C[C@H]1c1c(O)cc(CCCCC)c(/C=N/NC(N)=O)c1O` [Compound 3], on mushroom TYR [3], the 50% inhibitory concentration (IC50) is > 100 µM and the “Inhibitory activity on TYR (in words)” value is “did not exhibit any inhibitory activity”.

With `C=C(C)[C@@H]1CCC(C)=C[C@H]1c1c(O)cc(CCCCC)c(/C=N/NC(=N)N)c1O` [Compound 4], on mushroom TYR [3], the half-inhibitory concentration (IC50) is > 100 µM and the “Inhibitory activity on TYR (in words)” value was “did not exhibit any inhibitory activity”.

For `C=C(C)[C@@H]1CCC(C)=C[C@H]1c1c(O)cc(CCCCC)c(/C=N/NC(N)=S)c1O` [Compound 5, 3-thiosemicarbazone–CBD–aldehyde], in the test with mushroom TYR [4], the Lag time is 9.89 min and 9.89 ± 0.66 min; the Lag phase was 593 s. For the same compound, the Inhibition type entry in the test with mushroom TYR [5] was “mixed-type inhibition; also recorded: reversible, mixed-type inhibitor”. In test [1], this compound displayed an IC50 of 53.5 ± 5.29 µM. Moreover, in test [2], the FRAP value is given as 1257 ± 6.78 μM TE. Besides, on mushroom TYR [3], the half-maximal inhibitory concentration (IC50) worked out at 27.7 ± 1.84 µM. In addition, in the test with mushroom TYR [6], the “kq (bimolecular quenching rate constant)” value amounted to 7.61e+11 M⁻¹ s⁻¹, the “ka (binding constant)” value is 12100 M⁻¹ and the “Ksv (Stern–Volmer quenching constant)” value came to 7610 M⁻¹.

For the compound `C=C(C)[C@@H]1CCC(C)=C[C@H]1c1c(O)cc(CCCCC)c(/C=N/NC(=S)NC)c1O` [Compound 6, 3-(4-methyl-3-thiosemicarbazone)–CBD–aldehyde], in the test with mushroom TYR [4], the Lag time is 6.06 min and 6.06 ± 0.11 min; the Lag phase was 363 s. This compound registered an IC50 in test [1] of 63.7 ± 3.29 µM. In addition, at mushroom TYR [3], the IC50 came out at 29.4 ± 2.22 µM. For the same compound, in the test on mushroom TYR [6], the “kq (bimolecular quenching rate constant)” value is 9.98e+11 M⁻¹ s⁻¹, the “ka (binding constant)” value is 8700 M⁻¹ and the “Ksv (Stern–Volmer quenching constant)” value amounted to 9980 M⁻¹.

Take `C=C(C)[C@@H]1CCC(C)=C[C@H]1c1c(O)cc(CCCCC)c(/C=N/NC(=S)N(C)C)c1O` [Compound 7, 3-(4,4-dimethyl-3-thiosemicarbazone)–CBD–aldehyde]: in the test with mushroom TYR [4], the Lag time is 6.19 min and 6.19 ± 0.27 min; the Lag phase was 371 s. Also, half-maximal inhibition in test [1] (IC50) required 116 ± 5.05 µM. The FRAP value in test [2] is 981.9 ± 9.66 μM TE. Also, the 50% inhibitory concentration (IC50) at mushroom TYR [3] was 28.1 ± 1.82 µM. In addition, in the test with mushroom TYR [6], the “kq (bimolecular quenching rate constant)” value turned out to be 1.38e+12 M⁻¹ s⁻¹, the “ka (binding constant)” value was 5200 M⁻¹ and the “Ksv (Stern–Volmer quenching constant)” value was determined as 13800 M⁻¹.

`C=C(C)[C@@H]1CCC(C)=C[C@H]1c1c(O)cc(CCCCC)c(/C=N/NC(=S)Nc2ccccc2)c1O` [Compound 8, 3-(4-phenyl-3-thiosemicarbazone)–CBD–aldehyde]: in the test on mushroom TYR [4], the Lag time was 4.58 min and 4.58 ± 0.04 min; the Lag phase is 274 s. The same compound had a concentration for half-maximal inhibition (IC50) in test [1] of 57.6 ± 1.71 µM. The FRAP value in test [2] amounted to 931.7 ± 8.97 μM TE. Moreover, the IC50 at mushroom TYR [3] is 42.2 ± 3.52 µM. Besides, in the test on mushroom TYR [6], the “kq (bimolecular quenching rate constant)” value was determined as 4.68e+12 M⁻¹ s⁻¹, the “ka (binding constant)” value came to 25500 M⁻¹ and the “Ksv (Stern–Volmer quenching constant)” value stood at 46800 M⁻¹.

With `C=C(C)[C@@H]1CCC(C)=C[C@H]1c1c(OC)cc(CCCCC)c(/C=N/NC(N)=S)c1OC` [Compound 9, 3-thiosemicarbazone–CBD–dimethylether], in the test on mushroom TYR [4], the Lag time is 6.67 min and 6.67 ± 0.17 min; the Lag phase is on record as 400 s. The midpoint of inhibition in test [1], the IC50, lay at 316 ± 16 µM. In test [2], the FRAP value worked out at 431.5 ± 13.51 μM TE. On mushroom TYR [3], the IC50 came out at 22.4 ± 2.9 µM. Also, in the test on mushroom TYR [6], the “kq (bimolecular quenching rate constant)” value was found to be 1.3e+12 M⁻¹ s⁻¹, the “ka (binding constant)” value was found to be 13100 M⁻¹ and the “Ksv (Stern–Volmer quenching constant)” value amounted to 13000 M⁻¹.

For `Cc1c(C)c2c(c(C)c1O)CCC(C)(C(=O)O)O2` (stereo not shown) [trolox, reference compound], the IC50 in test [1] is 54.6 ± 3.45 µM.
